Laboratory results: patent publication US20250257075A1, “MACROCYCLIC INHIBITORS OF KRAS FOR THE TREATMENT OF CANCER” (Hoffmann-La Roche Inc., priority 2022, published 2025)

Key:
[1] = test system: NCI-H358 cells (KRAS G12C); assay: Cell viability assay, G12C; type: cell-based, human; settings: Homo sapiens; NCI-H358, 72 hrs, Cell Counting Kit-8
Protocol: (§1) The purpose of this cellular assay was to determine the effects of test compounds on the proliferation of human cancer cell lines NCI-H358 (ATCC-CRL5807) cells, AGS (ATCC-CRL-1739) cells, SW620 (ATCC-CCL-227) over a 3-day treatment period by quantifying the amount of NADPH present at endpoint using Cell Counting Kit-8.
(§2) Cells were seeded at 5,000 cells/well (NCI-H358), 2,000 cells/well (AGS) 2,000 cells/well (SW620) in 96-well assay plates (Corning-3699) and incubated overnight. On the day of the assay, diluted compounds were then added in a final concentration of 0.5% DMSO. After 72 hrs incubation, a tenth of the volume of cell counting kit 8 (Dnjindo-CK04) was added into each well. Read the signal (OD450 minus OD650) using EnVision after 2 hrs incubation. IC50 was determined by fitting a 4-parameter sigmoidal concentration response model.

AGS cells (KRAS G12D) = assay: Cell viability assay, G12D; type: cell-based, human; settings: Homo sapiens, 72 hrs, Cell Counting Kit-8
Protocol: as §1, §2

SW620 cells (KRAS G12V) = assay: Cell viability assay, G12V; type: cell-based, human; settings: Homo sapiens, SW-620; SW620, 72 hrs, Cell Counting Kit-8
Protocol: as §1, §2

KRAS G12C-BRAF complex [2] = biological target: T1, KRAS G12C-BRAF complex (Homo sapiens, UniProt P01116+P62937, G12C); assay: KRAS G12C-BRAF NanoBit assay in HEK293 cells; type: cell-based; settings: HEK293 stable cell pool, 3 hours of incubation
T1 construct: expressed in transfected cells
T1 sequence (P01116 1-188 isoform P01116-2 G12C): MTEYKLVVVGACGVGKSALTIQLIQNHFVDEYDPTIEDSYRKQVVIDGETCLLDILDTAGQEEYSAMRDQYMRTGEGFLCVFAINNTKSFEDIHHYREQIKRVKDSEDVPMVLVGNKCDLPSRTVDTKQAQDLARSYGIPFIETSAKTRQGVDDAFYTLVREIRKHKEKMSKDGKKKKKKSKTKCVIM
T1 sequence (P62937 whole entry): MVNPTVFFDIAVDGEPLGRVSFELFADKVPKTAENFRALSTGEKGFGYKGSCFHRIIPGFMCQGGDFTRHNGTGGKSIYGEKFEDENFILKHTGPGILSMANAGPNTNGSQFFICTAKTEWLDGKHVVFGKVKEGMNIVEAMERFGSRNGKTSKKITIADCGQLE
Protocol: This assay is to measure the ability of tested compounds in disruption of the KRAS G12C-BRAF complex at the cellular level, we established the NanoBit cellular assay in mammalian HEK293 (ATCC) cells. HEK293 cells were grown and maintained using DMEM medium (Thermo Fisher Scientific) with 10% fetal bovine serum and 1% penicillin/streptomycin. Both KRAS G12C and BRAF RBD were cloned into the NanoBit vectors ([…] vectors system, Promega) with the orientations SmBit-KRAS G12C and BRAF RBD-LgBit, respectively, and co-transfected into HEK293 cells. Cells were then selected with 100 μg/mL Hygromycin B (10687010, Thermo Fisher) and Blasticidin (5 μg/mL) for 4 weeks to get the stable cell pool. On the day of the assay, 75 nL of compound solution was presented in a 384-well assay plate as a 16-point 3-fold dilution starting from a final concentration of 30 μM in DMSO. Then cells were seeded at 10,000 cells/25 μL/well in a 384-well plate. After 3 hours of incubation, 6 μL of volume of Nano-Glo® Live Cell Substrate (Promega) was added into each well. Monitor luminescence using ultra384 model in Envision at 20 minutes. Compounds that facilitate disruption of the KRAS G12C-BRAF RBD complex were identified as those eliciting a decrease of luminescence relative to DMSO control wells.

KRAS G12C-BRAF complex [3] = biological target: T1, KRAS G12C-BRAF complex; assay: KRAS-BRAF with CYPA (500 nM) interaction assay (TR-FRET), G12C; type: biochemical; settings: 3 hours
Protocol: (§3) Kras-BRAF with CYPA (500 nM) Interaction Assay In this example, TR-FRET was also used to measure the compound or compound-CYPA dependent disruption of the KRAS G12C-BRAF complex. This protocol was also used to measure disruption of KRAS G12D or KRAS G12V binding to BRAF by a compound of the invention, respectively. […] TR-FRET signal was read on a […] microplate reader (Ex320 nm, Em 665/615 nm). Compounds that facilitate disruption of the KRAS-BRAF complex were identified as those eliciting a decrease in the TR-FRET ratio relative to DMSO control wells.

[4] = biological target: KRAS G12D binding to BRAF (Homo sapiens, UniProt P01116+P62937, G12D); assay: KRAS-BRAF with CYPA (500 nM) interaction assay (TR-FRET), G12D; type: biochemical; settings: 3 hours
Sequence of KRAS G12D binding to BRAF (P01116 1-188 isoform P01116-2 G12D): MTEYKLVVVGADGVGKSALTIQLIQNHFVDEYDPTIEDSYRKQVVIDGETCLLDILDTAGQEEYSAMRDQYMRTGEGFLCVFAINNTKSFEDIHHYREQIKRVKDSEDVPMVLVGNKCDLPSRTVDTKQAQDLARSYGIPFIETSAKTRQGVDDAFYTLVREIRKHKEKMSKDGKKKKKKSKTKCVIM
Sequence of KRAS G12D binding to BRAF (P62937 whole entry): as the sequence (P62937 whole entry) above
Protocol: as §3

[5] = biological target: KRAS G12V binding to BRAF (Homo sapiens, UniProt P01116+P62937, G12V); assay: KRAS-BRAF with CYPA (500 nM) interaction assay (TR-FRET), G12V; type: biochemical; settings: 3 hours
Sequence of KRAS G12V binding to BRAF (P01116 1-188 isoform P01116-2 G12V): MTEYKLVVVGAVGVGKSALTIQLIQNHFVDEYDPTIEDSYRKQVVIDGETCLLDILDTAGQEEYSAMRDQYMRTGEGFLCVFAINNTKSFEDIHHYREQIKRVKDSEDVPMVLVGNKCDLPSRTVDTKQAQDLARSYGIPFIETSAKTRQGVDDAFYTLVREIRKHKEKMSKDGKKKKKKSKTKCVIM
Sequence of KRAS G12V binding to BRAF (P62937 whole entry): as the sequence (P62937 whole entry) above
Protocol: as §3

[6] = test system: phosphorylation of ERK, KRAS G12C in NCI-H358 cells; assay: pERK inhibition assay, G12C; type: cell-based, human; settings: Homo sapiens; NCI-H358, 4 hours of incubation
Protocol: (§4) This assay is to measure the ability of test compounds in inhibiting the phosphorylation of ERK, the downstream signaling of KRAS G12C in NCI-H358 cells, KRAS G12D in AGS cells, and KRAS G12V in SW620. NCI-H358 (ATCC-CRL5807) cells, AGS (ATCC-CRL-1739) cells, SW620 (ATCC-CCL-227) cells were all grown and maintained using RPMI-1640 medium (Thermo Fisher Scientific) with 10% fetal bovine serum and 1% penicillin/streptomycin. On the day prior to compound addition, cells were plated in tissue culture-treated 96 well plates (Corning-3699) at a density of 30,000 cell/well, 20,000 cell/well, 30,000 cell/well for NCI-H358, AGS and SW620 respectively, and allowed for attachment overnight. Diluted compounds were then added in a final concentration of 0.5% DMSO. After 4 hours of incubation, the medium was removed, 100 μL of 4% formaldehyde was added, and the assay plates were incubated at room temperature for 20 minutes. The plates were then washed once with phosphate buffered saline (PBS), and permeabilized with 100 μL of chilled methanol for 10 minutes. Non-specific antibody binding to the plates was blocked using 50 μL 1×BSA blocking buffer (Thermo-37520, 10-fold dilution by Phosphate-Buffered Saline Tween (PBST) for at least 1 hour at room temperature.
(§5) The amount of phosphor-ERK was determined using an antibody specific for phosphorylated form of ERK. Primary antibody (pERK, CST-4370, Cell Signaling Technology) was diluted 1:300 in blocking buffer, with 50 μL aliquoted to each well, and incubated overnight at 4° C. Cells was washed five times for 5 minutes with PBST. Secondary antibody (HRP-linked anti-rabbit IgG, CST-7074, Cell Signaling Technology) was diluted 1:1000 in blocking buffer, and 50 μL was added to each well and incubated 1-2 hrs at room temperature. Cells was washed 5 times for 5 minutes with PBST, 100 μL TMB ELISA substrate (abcam-ab171523) were added and gently shake for 20 minutes. 50 μL stop solution (abcam-ab171529) were added, and then read the signal (OD450) by EnVision.
(§6) IC50 was determined by fitting a 4-parameter sigmoidal concentration response model.

[7] = test system: phosphorylation of ERK, KRAS G12D in AGS cells; assay: pERK inhibition assay, G12D; type: cell-based, human; settings: Homo sapiens, 4 hours of incubation
Protocol: as §4, §5, §6

[8] = test system: phosphorylation of ERK, KRAS G12V in SW620; assay: pERK inhibition assay, G12V; type: cell-based, human; settings: Homo sapiens, SW-620; SW620, 4 hours of incubation
Protocol: as §4, §5, §6

| Compound | IC50 [1] | IC50 (AGS cells (KRAS G12D)) | IC50 (SW620 cells (KRAS G12V)) | IC50 (KRAS G12C-BRAF complex [2]) | IC50 (KRAS G12C-BRAF complex [3]) | IC50 [4] | IC50 [5] | IC50 [6] | IC50 [7] | IC50 [8] |
| --- | --- | --- | --- | --- | --- | --- | --- | --- | --- | --- |
| CO[C@@H](C)c1ncc(N2CCN(CC(F)(F)F)CC2)cc1-c1c2c3cc(c(F)cc3n1CC(F)(F)F)-c1csc(n1)C[C@H](NC(=O)[C@H](C(C)C)N(C)C(=O)[C@H]1C[C@@H](C#CC(F)(F)F)C1)C(=O)N1CCC[C@H](N1)C(=O)OCC(C)(C)C2 (atropisomer, axis not shown; (M)) [Example 7, cis-N-[(1S)-1-[[(7S,13S)-24-fluoro-(20M)-20-[2-[(1S)-1-methoxyethyl]-5-[4-(2,2,2-trifluoroethyl)piperazin-1-yl]-3-pyridyl]-17,17-dimethyl-8,14-dioxo-21-(2,2,2-trifluoroethyl)-15-oxa-4-thia-9,21,27,28-tetrazapentacyclo[17.5.2.1^2,5.1^9,13.0^22,26]octacosa-1(25),2,5(28),19,22(26),23-hexaen-7-yl]carbamoyl]-2-methyl-propyl]-N-methyl-3-(3,3,3-trifluoroprop-1-ynyl)cyclobutanecarboxamide] | 0.023 µM | > 5 µM | > 5 µM | 0.335 µM | > 10 µM | > 10 µM | > 10 µM | 1.1 µM |  | 0.099 µM |
| CO[C@@H](C)c1ncc(N2CCN(C)CC2)cc1-c1c2c3cc(c(F)cc3n1CC(F)(F)F)-c1csc(n1)C[C@H](NC(=O)[C@H](C(C)C)N(C)C(=O)N1CC(C#CC(F)(F)F)C1)C(=O)N1CCC[C@H](N1)C(=O)OCC(C)(C)C2 (atropisomer, axis not shown; (M)) [Example 2, N-[(1S)-1-[[(7S,13S)-24-fluoro-(20M)-20-[2-[(1S)-1-methoxyethyl]-5-(4-methylpiperazin-1-yl)-3-pyridyl]-17,17-dimethyl-8,14-dioxo-21-(2,2,2-trifluoroethyl)-15-oxa-4-thia-9,21,27,28-tetrazapentacyclo[17.5.2.1^2,5.1^9,13.0^22,26]octacosa-1(25),2,5(28),19,22(26),23-hexaen-7-yl]carbamoyl]-2-methyl-propyl]-N-methyl-3-(3,3,3-trifluoroprop-1-ynyl)azetidine-1-carboxamide] | 0.002 µM | 0.02 µM | 0.01 µM | 0.018 µM | 1.79 µM | > 10 µM | 6.74 µM | 0.013 µM |  | 0.007 µM |
| CCn1c(-c2cc(N3CCN(C)CC3)cnc2[C@H](C)OC)c2c3cc(c(F)cc31)-c1csc(n1)C[C@H](NC(=O)[C@H](C(C)C)N(C)C(=O)[C@H]1C[C@@H](C#CC(F)(F)F)C1)C(=O)N1CCC[C@H](N1)C(=O)OCC(C)(C)C2 (atropisomer, axis not shown; (M)) [Example 6, cis-N-[(1S)-1-[[(7S,13S)-21-ethyl-24-fluoro-(20M)-20-[2-[(1S)-1-methoxyethyl]-5-(4-methylpiperazin-1-yl)-3-pyridyl]-17,17-dimethyl-8,14-dioxo-15-oxa-4-thia-9,21,27,28-tetrazapentacyclo[17.5.2.1^2,5.1^9,13.0^22,26]octacosa-1(25),2,5(28),19,22(26),23-hexaen-7-yl]carbamoyl]-2-methyl-propyl]-N-methyl-3-(3,3,3-trifluoroprop-1-ynyl)cyclobutanecarboxamide] | < 0.001 µM | 2.84 µM | 4.73 µM | 0.029 µM | 0.021 µM | > 10 µM | > 10 µM | 0.002 µM |  | 0.008 µM |

Next, values leading:

| IC50 [1] | IC50 (AGS cells (KRAS G12D)) | IC50 (SW620 cells (KRAS G12V)) | IC50 (KRAS G12C-BRAF complex [2]) | IC50 (KRAS G12C-BRAF complex [3]) | IC50 [4] | IC50 [5] | IC50 [6] | IC50 [7] | IC50 [8] | Compound |
| --- | --- | --- | --- | --- | --- | --- | --- | --- | --- | --- |
| 0.033 µM | 3.1 µM | 0.36 µM | 0.067 µM | 0.063 µM | 1.47 µM | 0.484 µM | 0.092 µM | 0.667 µM | 0.201 µM | CO[C@@H](C)c1ncc(N2CCN(C)CC2)cc1-c1c2c3c(F)c(ccc3n1CC(F)(F)F)-c1csc(n1)C[C@H](NC(=O)[C@H](C(C)C)N(C)C(=O)[C@H]1C[C@@H](C#CC(F)(F)F)C1)C(=O)N1CCC[C@H](N1)C(=O)OCC(C)(C)C2 (atropisomer, axis not shown; (M)) [Example 12, cis-N-[(1S)-1-[[(7S,13S)-25-fluoro-(20M)-20-[2-[(1S)-1-methoxyethyl]-5-(4-methylpiperazin-1-yl)-3-pyridyl]-17,17-dimethyl-8,14-dioxo-21-(2,2,2-trifluoroethyl)-15-oxa-4-thia-9,21,27,28-tetrazapentacyclo[17.5.2.1^2,5.1^9,13.0^22,26]octacosa-1(25),2,5(28),19,22(26),23-hexaen-7-yl]carbamoyl]-2-methyl-propyl]-N-methyl-3-(3,3,3-trifluoroprop-1-ynyl)cyclobutanecarboxamide] |
| 0.001 µM | > 10 µM | 0.007 µM | 0.036 µM | 1.66 µM | 4.3 µM | 1.88 µM | 0.005 µM | 0.02 µM | 0.003 µM | CCn1c(-c2cc(N3CCN(C)CC3)cnc2[C@H](C)OC)c2c3cc(c(F)cc31)-c1csc(n1)C[C@H](NC(=O)[C@H](C(C)C)N(C)C(=O)N1CC(C#CC(F)(F)F)C1)C(=O)N1CCC[C@H](N1)C(=O)OCC(C)(C)C2 (atropisomer, axis not shown; (M)) [Example 14, N-[(1S)-1-[[(7S,13S)-21-ethyl-24-fluoro-(20M)-20-[2-[(1S)-1-methoxyethyl]-5-(4-methylpiperazin-1-yl)-3-pyridyl]-17,17-dimethyl-8,14-dioxo-15-oxa-4-thia-9,21,27,28-tetrazapentacyclo[17.5.2.1^2,5.1^9,13.0^22,26]octacosa-1(25),2,5(28),19,22(26),23-hexaen-7-yl]carbamoyl]-2-methyl-propyl]-N-methyl-3-(3,3,3-trifluoroprop-1-ynyl)azetidine-1-carboxamide] |
